Assay results taken from ChEMBL document CHEMBL4507261, “Data for DCP probe A-192621” (2021).

Legend:
[1] = target: Protein kinase C iota type (Homo sapiens) (UniProt P41743); details: Compound concentration 1000.0 nM
[2] = target: Serine/threonine-protein kinase 38-like (Homo sapiens) (UniProt Q9Y2H1); details: Compound concentration 1000.0 nM
[3] = target: Cyclin-dependent kinase 4 (Homo sapiens) (UniProt P11802); details: Compound concentration 1000.0 nM
[4] = target: Receptor tyrosine-protein kinase erbB-4 (Homo sapiens) (UniProt Q15303); details: Compound concentration 1000.0 nM
[5] = target: Mu-type opioid receptor (Homo sapiens) (UniProt P35372); assay: mu (MOP) (h) Eurofins-Cerep binding assay; details: filed as agonist, Compound concentration 10.0 uM
[6] = target: Tyrosine-protein kinase receptor UFO (Homo sapiens) (UniProt P30530); details: Compound concentration 1000.0 nM
[7] = target: Interleukin-1 receptor-associated kinase 3 (Homo sapiens) (UniProt Q9Y616); details: Compound concentration 1000.0 nM
[8] = system: Tyrosine-protein kinase ABL1 (Homo sapiens), P00519 [F317I]; details: Compound concentration 1000.0 nM
[9] = target: Serine/threonine-protein kinase PAK 4 (Homo sapiens) (UniProt O96013); details: Compound concentration 1000.0 nM
[10] = system: Epidermal growth factor receptor (Homo sapiens), P00533 [UNDEFINED MUTATION]; details: Compound concentration 1000.0 nM
[11] = system: Mast/stem cell growth factor receptor Kit (Homo sapiens), P10721 [V559D,T670I]; details: Compound concentration 1000.0 nM
[12] = target: Prostaglandin E2 receptor EP2 subtype (Homo sapiens) (UniProt P43116); assay: EP2 (h) Eurofins-Cerep binding assay; parameters: ligand concentration 3 nM; details: filed as agonist, Compound concentration 10.0 uM
[13] = target: Mitogen-activated protein kinase 4 (Homo sapiens) (UniProt P31152); details: Compound concentration 1000.0 nM
[14] = target: Ribosomal protein S6 kinase alpha-6 (Homo sapiens) (UniProt Q9UK32); details: Compound concentration 1000.0 nM
[15] = target: Dual specificity protein kinase CLK3 (Homo sapiens) (UniProt P49761); details: Compound concentration 1000.0 nM
[16] = target: Serine/threonine-protein kinase tousled-like 1 (Homo sapiens) (UniProt Q9UKI8); details: Compound concentration 1000.0 nM
[17] = target: Serine/threonine-protein kinase ULK3 (Homo sapiens) (UniProt Q6PHR2); details: Compound concentration 1000.0 nM
[18] = target: Sulfonylurea receptors; K-ATP channels (Rattus norvegicus) (UniProt Q63563+P70673+Q63664+Q09429); assay: KATP channel Eurofins-Cerep binding assay; type: protein-complex assay; details: filed as antagonist, Compound concentration 10.0 uM
[19] = system: Tyrosine-protein kinase ABL1 (Homo sapiens), P00519 [F317I]; details: Compound concentration 1000.0 nM; remark: listed apart in the source
[20] = target: Casein kinase II subunit alpha' (Homo sapiens) (UniProt P19784); details: Compound concentration 1000.0 nM
[21] = target: Interleukin-1 receptor-associated kinase 4 (Homo sapiens) (UniProt Q9NWZ3); details: Compound concentration 1000.0 nM
[22] = system: Epidermal growth factor receptor (Homo sapiens), P00533 [L858R]; details: Compound concentration 1000.0 nM
[23] = target: Beta-adrenergic receptor kinase 1 (Homo sapiens) (UniProt P25098); details: Compound concentration 1000.0 nM
[24] = target: Serine/threonine-protein kinase Nek2 (Homo sapiens) (UniProt P51955); details: Compound concentration 1000.0 nM
[25] = target: T1, 5-hydroxytryptamine receptor 2C (Homo sapiens) (UniProt P28335); assay: 5-HT2C (h) Eurofins-Cerep binding assay; parameters: ligand concentration 1 nM; details: filed as antagonist, Compound concentration 10.0 uM
T1 sequence (whole entry): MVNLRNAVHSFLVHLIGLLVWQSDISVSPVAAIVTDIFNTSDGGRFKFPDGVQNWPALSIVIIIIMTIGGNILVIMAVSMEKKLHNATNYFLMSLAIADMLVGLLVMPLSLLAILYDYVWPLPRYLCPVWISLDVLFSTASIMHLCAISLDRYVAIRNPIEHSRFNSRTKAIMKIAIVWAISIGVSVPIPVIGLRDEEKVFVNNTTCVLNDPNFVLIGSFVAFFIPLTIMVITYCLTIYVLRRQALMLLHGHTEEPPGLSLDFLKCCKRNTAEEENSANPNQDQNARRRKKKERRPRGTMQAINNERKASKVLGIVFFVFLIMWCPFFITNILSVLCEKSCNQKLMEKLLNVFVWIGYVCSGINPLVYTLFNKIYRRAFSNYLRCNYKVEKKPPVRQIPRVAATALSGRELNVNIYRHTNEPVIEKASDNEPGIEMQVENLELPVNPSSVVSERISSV

[26] = target: Serine/threonine-protein kinase MARK1 (Homo sapiens) (UniProt Q9P0L2); details: Compound concentration 1000.0 nM
[27] = system: Receptor-type tyrosine-protein kinase FLT3 (Homo sapiens), P36888 [UNDEFINED MUTATION]; details: Compound concentration 1000.0 nM
[28] = target: T2, Muscarinic acetylcholine receptor M4 (Homo sapiens) (UniProt P08173); assay: M4 (h) Eurofins-Cerep binding assay; parameters: ligand concentration 0.2 nM; details: filed as antagonist, Compound concentration 10.0 uM
T2 sequence (whole entry): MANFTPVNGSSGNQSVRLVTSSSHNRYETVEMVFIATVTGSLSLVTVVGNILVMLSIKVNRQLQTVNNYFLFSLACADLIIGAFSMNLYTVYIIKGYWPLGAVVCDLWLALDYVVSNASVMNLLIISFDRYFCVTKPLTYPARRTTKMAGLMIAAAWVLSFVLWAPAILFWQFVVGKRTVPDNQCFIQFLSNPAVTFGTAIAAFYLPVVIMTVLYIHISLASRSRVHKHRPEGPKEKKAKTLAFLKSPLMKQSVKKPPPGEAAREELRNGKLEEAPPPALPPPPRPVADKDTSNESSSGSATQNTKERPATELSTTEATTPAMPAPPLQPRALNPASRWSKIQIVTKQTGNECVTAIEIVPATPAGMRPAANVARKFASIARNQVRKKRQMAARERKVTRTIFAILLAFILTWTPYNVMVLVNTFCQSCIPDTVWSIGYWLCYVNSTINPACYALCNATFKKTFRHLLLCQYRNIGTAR

[29] = target: cGMP-inhibited 3',5'-cyclic phosphodiesterase 3A (Homo sapiens) (UniProt Q14432); assay: PDE3A (h) Eurofins-Cerep enzyme and uptake assay; details: Compound concentration 10.0 uM
[30] = target: Homeodomain-interacting protein kinase 4 (Homo sapiens) (UniProt Q8NE63); details: Compound concentration 1000.0 nM
[31] = target: Sodium/potassium-transporting ATPase (Sus scrofa) (UniProt P05027+P05024+D2WKD8+D2WKD7+F1ST41); assay: ATPase (Na+/K+) Eurofins-Cerep enzyme and uptake assay; type: protein-complex assay; details: Compound concentration 10.0 uM

Sequence of Tyrosine-protein kinase ABL1 (Homo sapiens), P00519 [F317I] (P00519 whole entry F317I): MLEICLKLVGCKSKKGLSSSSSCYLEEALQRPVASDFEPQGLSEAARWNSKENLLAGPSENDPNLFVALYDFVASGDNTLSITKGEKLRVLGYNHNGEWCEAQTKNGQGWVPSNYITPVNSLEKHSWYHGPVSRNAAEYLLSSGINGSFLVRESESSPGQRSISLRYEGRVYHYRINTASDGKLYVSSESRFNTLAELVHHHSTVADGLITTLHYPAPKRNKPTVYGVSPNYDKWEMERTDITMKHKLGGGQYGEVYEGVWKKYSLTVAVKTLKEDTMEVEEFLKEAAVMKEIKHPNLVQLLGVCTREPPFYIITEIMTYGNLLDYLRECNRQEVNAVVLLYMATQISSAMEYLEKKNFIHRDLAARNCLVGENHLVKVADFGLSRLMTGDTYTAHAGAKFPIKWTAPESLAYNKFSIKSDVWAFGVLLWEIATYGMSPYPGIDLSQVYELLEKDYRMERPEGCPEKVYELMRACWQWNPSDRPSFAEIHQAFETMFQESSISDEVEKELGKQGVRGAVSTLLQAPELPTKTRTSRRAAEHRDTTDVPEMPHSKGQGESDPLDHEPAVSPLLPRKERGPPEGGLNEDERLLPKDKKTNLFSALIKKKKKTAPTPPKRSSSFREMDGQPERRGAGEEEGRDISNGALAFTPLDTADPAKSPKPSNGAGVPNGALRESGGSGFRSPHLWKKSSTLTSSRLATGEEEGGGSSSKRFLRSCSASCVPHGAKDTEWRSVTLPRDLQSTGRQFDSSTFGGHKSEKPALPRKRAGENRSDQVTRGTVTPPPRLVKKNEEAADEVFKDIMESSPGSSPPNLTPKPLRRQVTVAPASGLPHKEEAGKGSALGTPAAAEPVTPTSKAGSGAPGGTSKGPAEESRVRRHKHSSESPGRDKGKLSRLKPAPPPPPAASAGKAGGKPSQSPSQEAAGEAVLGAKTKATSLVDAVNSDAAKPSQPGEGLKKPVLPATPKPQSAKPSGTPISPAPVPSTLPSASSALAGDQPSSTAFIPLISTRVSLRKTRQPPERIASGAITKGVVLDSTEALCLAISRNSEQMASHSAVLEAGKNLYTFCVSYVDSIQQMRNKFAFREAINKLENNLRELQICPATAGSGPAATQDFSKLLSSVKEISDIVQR
Sequence of Interleukin-1 receptor-associated kinase 3 (Homo sapiens) (Q9Y616 whole entry): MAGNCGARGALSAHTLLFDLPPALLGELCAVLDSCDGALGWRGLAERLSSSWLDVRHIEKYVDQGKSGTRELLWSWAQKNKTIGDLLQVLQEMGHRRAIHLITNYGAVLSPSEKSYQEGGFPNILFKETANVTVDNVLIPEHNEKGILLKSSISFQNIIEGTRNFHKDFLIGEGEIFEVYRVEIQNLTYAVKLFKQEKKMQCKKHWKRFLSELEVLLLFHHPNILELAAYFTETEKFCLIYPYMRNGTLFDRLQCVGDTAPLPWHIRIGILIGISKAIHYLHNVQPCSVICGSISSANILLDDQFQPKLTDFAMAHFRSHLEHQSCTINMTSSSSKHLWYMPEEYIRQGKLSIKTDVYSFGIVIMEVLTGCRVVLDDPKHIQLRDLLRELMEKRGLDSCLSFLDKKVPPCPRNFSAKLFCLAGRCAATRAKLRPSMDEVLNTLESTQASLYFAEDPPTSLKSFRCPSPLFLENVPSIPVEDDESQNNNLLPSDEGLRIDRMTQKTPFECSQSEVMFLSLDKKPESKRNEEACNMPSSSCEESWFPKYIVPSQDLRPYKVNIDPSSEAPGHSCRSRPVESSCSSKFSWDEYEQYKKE
Sequence of Protein kinase C iota type (Homo sapiens) (P41743 whole entry): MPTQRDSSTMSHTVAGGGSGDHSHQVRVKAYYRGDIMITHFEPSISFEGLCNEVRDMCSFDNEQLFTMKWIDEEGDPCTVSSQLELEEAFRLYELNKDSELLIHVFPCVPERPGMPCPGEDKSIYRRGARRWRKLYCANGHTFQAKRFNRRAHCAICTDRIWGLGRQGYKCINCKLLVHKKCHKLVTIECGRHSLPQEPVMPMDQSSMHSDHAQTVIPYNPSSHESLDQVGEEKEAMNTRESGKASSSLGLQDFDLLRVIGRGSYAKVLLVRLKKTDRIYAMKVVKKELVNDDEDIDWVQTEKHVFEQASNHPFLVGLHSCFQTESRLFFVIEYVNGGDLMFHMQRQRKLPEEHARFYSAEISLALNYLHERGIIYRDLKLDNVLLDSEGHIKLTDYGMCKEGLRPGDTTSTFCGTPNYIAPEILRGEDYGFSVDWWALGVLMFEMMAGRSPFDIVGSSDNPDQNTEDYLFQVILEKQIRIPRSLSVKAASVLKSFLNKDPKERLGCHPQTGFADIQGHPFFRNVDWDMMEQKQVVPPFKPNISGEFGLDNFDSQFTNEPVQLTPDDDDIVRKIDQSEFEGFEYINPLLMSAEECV
Sequence of Serine/threonine-protein kinase 38-like (Homo sapiens) (Q9Y2H1 2-464 limits assumed): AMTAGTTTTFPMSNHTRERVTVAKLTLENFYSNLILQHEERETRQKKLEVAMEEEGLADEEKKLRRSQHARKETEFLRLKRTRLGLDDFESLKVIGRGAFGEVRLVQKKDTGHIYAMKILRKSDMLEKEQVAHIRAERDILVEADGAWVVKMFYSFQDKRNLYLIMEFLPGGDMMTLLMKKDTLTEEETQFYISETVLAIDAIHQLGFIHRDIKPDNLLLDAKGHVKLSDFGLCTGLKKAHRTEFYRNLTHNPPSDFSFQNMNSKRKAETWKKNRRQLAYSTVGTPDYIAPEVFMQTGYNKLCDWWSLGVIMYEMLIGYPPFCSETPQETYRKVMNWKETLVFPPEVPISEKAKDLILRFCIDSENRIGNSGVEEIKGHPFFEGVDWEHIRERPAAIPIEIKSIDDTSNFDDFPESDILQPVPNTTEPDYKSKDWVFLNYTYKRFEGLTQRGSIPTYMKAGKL
Sequence of Prostaglandin E2 receptor EP2 subtype (Homo sapiens) (P43116 whole entry): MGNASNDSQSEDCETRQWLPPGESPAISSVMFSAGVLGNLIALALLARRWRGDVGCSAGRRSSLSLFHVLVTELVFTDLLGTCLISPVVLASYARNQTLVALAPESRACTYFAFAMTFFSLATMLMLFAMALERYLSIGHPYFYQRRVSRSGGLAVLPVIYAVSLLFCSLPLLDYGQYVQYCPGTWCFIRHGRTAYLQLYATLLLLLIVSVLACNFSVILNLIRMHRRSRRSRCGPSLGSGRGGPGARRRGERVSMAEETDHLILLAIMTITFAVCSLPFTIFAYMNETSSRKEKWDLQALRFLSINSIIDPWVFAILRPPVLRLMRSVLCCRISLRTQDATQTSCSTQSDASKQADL
Sequence of cGMP-inhibited 3',5'-cyclic phosphodiesterase 3A (Homo sapiens) (Q14432 whole entry): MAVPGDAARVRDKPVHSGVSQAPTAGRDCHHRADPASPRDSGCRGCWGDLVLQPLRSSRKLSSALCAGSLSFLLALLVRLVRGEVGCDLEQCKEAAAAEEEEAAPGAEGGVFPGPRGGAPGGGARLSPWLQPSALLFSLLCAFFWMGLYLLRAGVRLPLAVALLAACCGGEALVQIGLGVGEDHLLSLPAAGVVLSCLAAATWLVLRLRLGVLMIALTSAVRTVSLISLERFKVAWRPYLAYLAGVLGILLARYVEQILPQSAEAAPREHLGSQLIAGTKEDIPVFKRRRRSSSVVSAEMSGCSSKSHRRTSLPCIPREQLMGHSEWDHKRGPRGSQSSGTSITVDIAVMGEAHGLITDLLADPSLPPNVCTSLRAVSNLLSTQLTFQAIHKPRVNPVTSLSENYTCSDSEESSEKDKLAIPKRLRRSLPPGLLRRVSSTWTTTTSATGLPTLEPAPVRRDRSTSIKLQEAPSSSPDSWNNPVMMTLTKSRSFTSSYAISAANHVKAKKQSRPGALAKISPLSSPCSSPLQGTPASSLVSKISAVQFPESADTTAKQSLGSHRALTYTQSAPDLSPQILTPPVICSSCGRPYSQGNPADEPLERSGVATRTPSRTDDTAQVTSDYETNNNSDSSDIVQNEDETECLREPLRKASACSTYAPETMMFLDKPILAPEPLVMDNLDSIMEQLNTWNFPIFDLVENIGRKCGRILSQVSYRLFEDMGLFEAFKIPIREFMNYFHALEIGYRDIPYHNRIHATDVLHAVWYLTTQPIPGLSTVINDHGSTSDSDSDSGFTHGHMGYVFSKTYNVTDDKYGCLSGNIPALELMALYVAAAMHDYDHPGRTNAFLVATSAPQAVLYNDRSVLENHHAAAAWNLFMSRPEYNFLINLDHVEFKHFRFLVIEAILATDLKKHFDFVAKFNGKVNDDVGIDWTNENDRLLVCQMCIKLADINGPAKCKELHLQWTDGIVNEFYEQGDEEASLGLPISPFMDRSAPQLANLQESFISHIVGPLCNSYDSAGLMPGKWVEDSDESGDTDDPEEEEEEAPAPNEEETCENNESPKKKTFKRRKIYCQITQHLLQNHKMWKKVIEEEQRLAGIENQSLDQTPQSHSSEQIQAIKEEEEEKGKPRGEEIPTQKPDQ
Sequence of Interleukin-1 receptor-associated kinase 4 (Homo sapiens) (Q9NWZ3 whole entry): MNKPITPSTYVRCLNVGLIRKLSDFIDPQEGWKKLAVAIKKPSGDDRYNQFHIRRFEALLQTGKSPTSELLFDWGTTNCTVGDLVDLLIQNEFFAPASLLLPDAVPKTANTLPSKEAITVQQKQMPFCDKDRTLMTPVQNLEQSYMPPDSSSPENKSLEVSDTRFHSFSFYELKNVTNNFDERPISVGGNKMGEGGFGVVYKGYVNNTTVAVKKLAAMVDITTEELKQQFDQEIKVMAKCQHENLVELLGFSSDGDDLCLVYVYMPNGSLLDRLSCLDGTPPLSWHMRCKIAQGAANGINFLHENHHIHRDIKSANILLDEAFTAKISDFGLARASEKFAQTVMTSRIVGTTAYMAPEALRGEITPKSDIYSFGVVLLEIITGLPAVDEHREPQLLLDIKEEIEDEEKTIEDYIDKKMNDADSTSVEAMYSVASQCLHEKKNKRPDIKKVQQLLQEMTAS
Sequence of Cyclin-dependent kinase 4 (Homo sapiens) (P11802 whole entry): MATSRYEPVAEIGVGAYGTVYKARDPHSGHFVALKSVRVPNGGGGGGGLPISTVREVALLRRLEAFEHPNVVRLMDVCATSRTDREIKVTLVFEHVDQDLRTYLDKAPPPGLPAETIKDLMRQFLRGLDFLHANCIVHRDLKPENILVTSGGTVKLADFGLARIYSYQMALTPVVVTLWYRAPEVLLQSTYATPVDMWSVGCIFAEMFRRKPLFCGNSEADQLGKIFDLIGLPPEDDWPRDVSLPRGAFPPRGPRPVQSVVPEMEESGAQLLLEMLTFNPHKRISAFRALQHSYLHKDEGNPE

Q: What does the source list for `CCCOc1ccc([C@H]2[C@H](C(=O)O)[C@@H](c3ccc4c(c3)OCO4)CN2CC(=O)Nc2c(CC)cccc2CC)cc1` [A-192621]?
A: residual activity [1]: 78%; residual activity [2]: 88%; residual activity [3]: 100%; residual activity [4]: 100%; % Inhibition of Control Specific Binding (Mean n=2) [5]: 8.3%; residual activity [6]: 83%; residual activity [7]: 100%; residual activity [8]: 71%; residual activity [9]: 91%; residual activity [10]: 100%; residual activity [11]: 87%; % Inhibition of Control Specific Binding (Mean n=2) [12]: 10.1%; residual activity [13]: 93%; residual activity [14]: 77%; residual activity [15]: 97%; residual activity [16]: 74%; residual activity [17]: 72%; % Inhibition of Control Specific Binding (Mean n=2) [18]: 11.1%; residual activity [19]: 76%; residual activity [20]: 87%; residual activity [21]: 76%; residual activity [22]: 100%; residual activity [23]: 51%; residual activity [24]: 90%; % Inhibition of Control Specific Binding (Mean n=2) [25]: 1.2%; residual activity [26]: 100%; residual activity [27]: 13%; % Inhibition of Control Specific Binding (Mean n=2) [28]: -2%; % Inhibition of Control Values (Mean n=2) [29]: 29%; residual activity [30]: 70%; % Inhibition of Control Values (Mean n=2) [31]: 0.7%

Q: `CCCOc1ccc([C@@H]2[C@@H](C(=O)O)[C@H](c3ccc4c(c3)OCO4)CN2CC(=O)Nc2c(CC)cccc2CC)cc1` [A-1806262] was tested. Which residual activity [1] did it give?
A: 80%

Q: And the residual activity [2]?
A: 100%

Q: What about the residual activity [3] of the same compound?
A: 100%

Q: What about the residual activity [4] of the same compound?
A: 100%

Q: And the % Inhibition of Control Specific Binding (Mean n=2) [5]?
A: 11.1%

Q: And the residual activity [6]?
A: 93%

Q: And the residual activity [7]?
A: 100%

Q: What about the residual activity [8] of the same compound?
A: 83%

Q: What about the residual activity [9] of the same compound?
A: 91%

Q: What about the residual activity [10] of the same compound?
A: 100%

Q: And the residual activity [11]?
A: 100%

Q: And the % Inhibition of Control Specific Binding (Mean n=2) [12]?
A: 10.7%

Q: And the residual activity [13]?
A: 95%

Q: And the residual activity [14]?
A: 76%

Q: And the residual activity [15]?
A: 93%

Q: What about the residual activity [16] of the same compound?
A: 77%

Q: What about the residual activity [17] of the same compound?
A: 83%

Q: What about the % Inhibition of Control Specific Binding (Mean n=2) [18] of the same compound?
A: 6%

Q: And the residual activity [19]?
A: 96%

Q: What about the residual activity [20] of the same compound?
A: 83%

Q: And the residual activity [21]?
A: 100%

Q: What about the residual activity [22] of the same compound?
A: 87%

Q: What about the residual activity [23] of the same compound?
A: 89%

Q: What about the residual activity [24] of the same compound?
A: 97%

Q: And the % Inhibition of Control Specific Binding [25]?
A: 0%

Q: What about the residual activity [26] of the same compound?
A: 100%

Q: And the residual activity [27]?
A: 63%

Q: What about the % Inhibition of Control Specific Binding (Mean n=2) [28] of the same compound?
A: -1.8%

Q: What about the % Inhibition of Control Values (Mean n=2) [29] of the same compound?
A: 34.5%

Q: And the residual activity [30]?
A: 65%

Q: And the % Inhibition of Control Values (Mean n=2) [31]?
A: 0.6%
